Experiments:
SCC-25 cells = assay: Combination studies (single and sequential combination dosing), % cytotoxicity in SCC-25 cells; conditions: Homo sapiens, SCC-25, SCC-25; for cytotoxicity at 1.1 µM: single agent at IC50 (compound B 1.1 μM)
Method: (§1) Logarithmically growing cells were plated at a density of 3×10^3 cells/well and allowed to recover overnight. […] After 72 hours, cell toxicity was determined by CCK-8 (Cell Counting Kit-8) reagent (Dojindo Molecular Technologies, Japan); WST-8 (2-(2-methoxy-4-nitrophenyl)-3-(4-nitrophenyl)-5-(2, 4-disulfophenyl)]-2H-tetrazolium, monosodium salt) assay. In accordance with the manufacturer's instructions, 5 μl/well CCK-8 reagent was added and plates were incubated for 2 hours. The toxicity was determined by measuring the absorbance on Tecan Sapphire multi-fluorescence micro-plate reader (Tecan, Germany, GmbH) at a wavelength of 450 nm corrected to 650 nm and normalized to controls.
(§2) CCK-8 allows convenient assays using Dojindo's tetrazolium salt, WST [8[(2-(2-methoxy-4-nitrophenyl)-3-(4-nitrophenyl)-5-(2,4-disulfophenyl)-2H-tetrazolium, monosodium salt], which produces a water-soluble formazan dye upon bioreduction in the presence of an electron carrier, 1-Methoxy PMS. CCK-8 solution is added directly to the cells; no pre-mixing of components is required. CCK-8 is a sensitive nonradioactive colorimetric assay for determining the number of viable cells in cell proliferation and cytotoxicity assays. WST-8 is bio-reduced by cellular dehydrogenases to an orange formazan product that is soluble in tissue culture medium. The amount of formazan produced is directly proportional to the number of living cells. The detection sensitivity of cell proliferation assays using WST-8 is higher than assays using the other tetrazolium salts such as MIT, XTT, MTS or WST-1. Optical Density was determined at measurement wavelength of 450 nm and reference wave length of 630 nm.
Sorafenib in the following dose of final concentration 0.18 μM and compound A in the following doses of final concentration 0.1 μM, 0.4 μM and 4.1 μM were analyzed in single dose and in all possible combinations of the dose range for the two anticancer agents mentioned above. The sequence of treatment is as follows; the SCC-25 cells were treated with sorafenib for 0 to 24 hrs. At the end of 24 hrs the cells were washed two times with plain MEM (minimum essential media) medium. Fresh MEM with 10% serum (200 μL/well) was added, followed by treatment with compound A from 24 hrs to 96 hrs.
Sorafenib in the following dose of final concentration 0.18 μM and compound B in the following doses of final concentration 0.2 μM, 1.1 μM and 4.8 μM were analyzed in single dose and in all possible combinations of the dose range for the two anticancer agents mentioned above. The sequence of treatment is as follows; the SCC-25 cells were treated with sorafenib for 0 to 24 hrs. At the end of 24 hrs the cells were washed two times with plain MEM medium. Fresh MEM with 10% serum (200 μL/well) was added, followed by treatment with compound B from 24 hrs to 96 hrs.
Lapatinib in the following dose of final concentration 0.2 μM and compound A in the following doses of final concentration 0.2 μM, 0.5 μM and 3.3 μM were analyzed in single dose and in all possible combinations of the dose range for the two drugs mentioned above. The sequence of treatment is as follows; the SCC-25 cells were treated with lapatinib for 0 to 24 hrs. At the end of 24 hrs the cells were washed two times with plain MEM medium. Fresh MEM with 10% serum (200 μL/well) was added, followed by treatment with compound A from 24 hrs to 96 hrs.
Lapatinib in the following dose of final concentration 0.2 μM and compound B in the following doses of final concentration 0.2 μM, 1.1 μM and 4.8 μM were analyzed in single dose and in all possible combinations of the dose range for the two drugs mentioned above. The sequence of treatment is as follows; the SCC-25 cells were treated with lapatinib for 0 to 24 hrs. At the end of 24 hrs the cells were washed two times with plain MEM medium. Fresh MEM with 10% serum (200 μL/well) was added, followed by treatment with compound A from 24 hrs to 96 hrs.

FADU cells [1] = assay: cells; conditions: Homo sapiens; for cytotoxicity at 4.1 µM: single agent at IC50 (compound B 4.1 μM); for cytotoxicity at 9.6 µM: single agent at IC70 (compound B 9.6 μM)
Detroit-562 cells = assay: CCK-8 cytotoxicity assay, determination of inhibitory concentrations in Detroit-562 cells; format: cell-based; conditions: 72 hr
Method: as §1, §2
(§3) The cells were seeded at a density of 3000 cells/well, in a 200 μL in tissue culture grade 96 well plate and were allowed to recover for 24 hrs in a humidified 5%±0.2 CO2 incubator at 37° C.±0.5° C. […] The final DMSO concentration was 0.5% in wells. Plates were incubated for 48 hrs in humidified 5%±0.2 CO2 incubator at 37±0.5° C. After 48 hrs the plates were removed from CO2 incubator and 5 μL of Cell counting Kit (CCK-8) per well was added. The same plate was kept at 37° C. for 3 hrs, and allowed to come to room temperature. The absorbance at a wavelength of 450 nm was read on Tecan safire reader. The percent cytotoxicity was calculated using the following formula.

FADU cells [2] = assay: CCK-8 cytotoxicity assay, determination of inhibitory concentrations in FADU cells; format: cell-based, human; conditions: 72 hr
Method: as §1, §2, §3

CN1CC[C@@H](c2c(O)cc(O)c3c(=O)cc(-c4ccc(C(F)(F)F)cc4Cl)oc23)[C@@H]1CO.Cl [Compound B, (+)-trans-2-(2-chloro-4-trifluoromethyl-phenyl)-5,7-dihydroxy-8-(2-hydroxymethyl-1-methyl-pyrrolidin-3-yl)-chromen-4-one hydrochloride]
cytotoxicity at 0.2 µM (SCC-25 cells; single agent at IC30 (lapatinib 0.2 μM; compound B 0.2 μM)): 16%
cytotoxicity at 0.2 µM (SCC-25 cells; single agent at IC30 (sorafenib 0.18 μM; compound B 0.2 μM)): 16%
cytotoxicity at 1.1 µM (SCC-25 cells; lapatinib study): 19%
cytotoxicity at 1.1 µM (SCC-25 cells; sorafenib study): 19%
cytotoxicity at 2.3 µM (FADU cells [1]; single agent at IC30 (lapatinib 0.8 μM; compound B 2.3 μM)): 21%
cytotoxicity at 2.3 µM (FADU cells [1]; single agent at IC30 (sorafenib 3.9 μM; compound B 2.3 μM)): 14%
cytotoxicity at 4.1 µM (FADU cells [1]; lapatinib study): 26%
cytotoxicity at 4.1 µM (FADU cells [1]; sorafenib study): 20%
cytotoxicity at 9.6 µM (FADU cells [1]; lapatinib study): 33%
cytotoxicity at 9.6 µM (FADU cells [1]; sorafenib study): 27%
IC30 (Detroit-562 cells): 2.7 µM
IC70 (Detroit-562 cells): 25.2 µM
IC50 (Detroit-562 cells; Homo sapiens): 14.1 µM
IC90 (Detroit-562 cells; Homo sapiens): 44.6 µM
IC30 (FADU cells [2]): 2.3 µM
IC70 (FADU cells [2]): 9.6 µM
IC50 (FADU cells [2]; Homo sapiens): 4.1 µM
IC90 (FADU cells [2]; Homo sapiens): 31.4 µM
